According to PubChem BioAssay AID1259407 (Chemical Carcinogenesis Research Information System (CCRIS), 2018):
Activity calls are given as the source filed them. The rule behind the calls is not given here.

Test system: CCRIS mutagenicity, Ames/micronucleus/aberration tests
Assay: CCRIS mutagenicity studies
[1] = Test System: AMES SALMONELLA TYPHIMURIUM, Strain/Indicator: TA98, Metabolic Activation: NONE, Method: STANDARD PLATE

Measured: mutagenic call

Nc1cc(Cl)ccc1Cl
inactive: Test System: AMES SALMONELLA TYPHIMURIUM, Strain/Indicator: TA97, Metabolic Activation: HAMSTER, LIVER, S-9, AROCLOR 1254 (10%), Method: PREINCUBATION inactive; negative | Test System: AMES SALMONELLA TYPHIMURIUM, Strain/Indicator: TA97, Metabolic Activation: HAMSTER, LIVER, S-9, AROCLOR 1254 (30%), Method: PREINCUBATION inactive; negative | Test System: AMES SALMONELLA TYPHIMURIUM, Strain/Indicator: TA97, Metabolic Activation: NONE, Method: PREINCUBATION inactive; negative | Test System: AMES SALMONELLA TYPHIMURIUM, Strain/Indicator: TA97, Metabolic Activation: RAT, LIVER, S-9, AROCLOR 1254 (10%), Method: PREINCUBATION inactive; negative | Test System: AMES SALMONELLA TYPHIMURIUM, Strain/Indicator: TA97, Metabolic Activation: RAT, LIVER, S-9, AROCLOR 1254 (30%), Method: PREINCUBATION inactive; negative | Test System: AMES SALMONELLA TYPHIMURIUM, Strain/Indicator: TA98, Metabolic Activation: HAMSTER, LIVER, S-9, AROCLOR 1254 (10%), Method: PREINCUBATION inactive; negative | Test System: AMES SALMONELLA TYPHIMURIUM, Strain/Indicator: TA98, Metabolic Activation: HAMSTER, LIVER, S-9, AROCLOR 1254 (30%), Method: PREINCUBATION inactive; negative | Test System: AMES SALMONELLA TYPHIMURIUM, Strain/Indicator: TA98, Metabolic Activation: NONE, Method: PREINCUBATION inactive; negative | Test System: AMES SALMONELLA TYPHIMURIUM, Strain/Indicator: TA98, Metabolic Activation: RAT, LIVER, S-9, AROCLOR 1254 (10%), Method: PREINCUBATION inactive; negative | Test System: AMES SALMONELLA TYPHIMURIUM, Strain/Indicator: TA98, Metabolic Activation: RAT, LIVER, S-9, AROCLOR 1254 (30%), Method: PREINCUBATION inactive; negative | Test System: AMES SALMONELLA TYPHIMURIUM, Strain/Indicator: TA100, Metabolic Activation: HAMSTER, LIVER, S-9, AROCLOR 1254 (10%), Method: PREINCUBATION inactive; negative | Test System: AMES SALMONELLA TYPHIMURIUM, Strain/Indicator: TA100, Metabolic Activation: HAMSTER, LIVER, S-9, AROCLOR 1254 (30%), Method: PREINCUBATION inactive; negative | Test System: AMES SALMONELLA TYPHIMURIUM, Strain/Indicator: TA100, Metabolic Activation: NONE, Method: PREINCUBATION inactive; negative | Test System: AMES SALMONELLA TYPHIMURIUM, Strain/Indicator: TA100, Metabolic Activation: RAT, LIVER, S-9, AROCLOR 1254 (10%), Method: PREINCUBATION inactive; negative | Test System: AMES SALMONELLA TYPHIMURIUM, Strain/Indicator: TA100, Metabolic Activation: RAT, LIVER, S-9, AROCLOR 1254 (30%), Method: PREINCUBATION inactive; negative | Test System: AMES SALMONELLA TYPHIMURIUM, Strain/Indicator: TA1535, Metabolic Activation: HAMSTER, LIVER, S-9, AROCLOR 1254 (10%), Method: PREINCUBATION inactive; negative | Test System: AMES SALMONELLA TYPHIMURIUM, Strain/Indicator: TA1535, Metabolic Activation: HAMSTER, LIVER, S-9, AROCLOR 1254 (30%), Method: PREINCUBATION inactive; negative | Test System: AMES SALMONELLA TYPHIMURIUM, Strain/Indicator: TA1535, Metabolic Activation: NONE, Method: PREINCUBATION inactive; negative | Test System: AMES SALMONELLA TYPHIMURIUM, Strain/Indicator: TA1535, Metabolic Activation: RAT, LIVER, S-9, AROCLOR 1254 (10%), Method: PREINCUBATION inactive; negative | Test System: AMES SALMONELLA TYPHIMURIUM, Strain/Indicator: TA1535, Metabolic Activation: RAT, LIVER, S-9, AROCLOR 1254 (30%), Method: PREINCUBATION inactive; negative | Test System: UDS RODENT HEPATOCYTES, Strain/Indicator: THY INCORP (NON-S-PHASE), Metabolic Activation: NONE, Method: AUTORADIOGRAPHY inactive; negative

COC(=O)c1cc2ccc3cccnc3c2[nH]1
inactive: [1] inactive; negative | Test System: E. COLI, Strain/Indicator: WP2 TM9, Metabolic Activation: NONE, Method: STANDARD PLATE inactive; negative

O=P([O-])([O-])OC(CCO)CCO.O=P([O-])([O-])OCC(O)CO.[Mn+2].[Mn+2]
inactive: [1] inactive; negative | Test System: AMES SALMONELLA TYPHIMURIUM, Strain/Indicator: TA98, Metabolic Activation: RAT, LIVER, S-9, AROCLOR 1254, Method: STANDARD PLATE inactive; negative | Test System: AMES SALMONELLA TYPHIMURIUM, Strain/Indicator: TA100, Metabolic Activation: NONE, Method: STANDARD PLATE inactive; negative | Test System: AMES SALMONELLA TYPHIMURIUM, Strain/Indicator: TA100, Metabolic Activation: RAT, LIVER, S-9, AROCLOR 1254, Method: STANDARD PLATE inactive; negative | Test System: AMES SALMONELLA TYPHIMURIUM, Strain/Indicator: TA1535, Metabolic Activation: NONE, Method: STANDARD PLATE inactive; negative | Test System: AMES SALMONELLA TYPHIMURIUM, Strain/Indicator: TA1535, Metabolic Activation: RAT, LIVER, S-9, AROCLOR 1254, Method: STANDARD PLATE inactive; negative | Test System: AMES SALMONELLA TYPHIMURIUM, Strain/Indicator: TA1537, Metabolic Activation: NONE, Method: STANDARD PLATE inactive; negative | Test System: AMES SALMONELLA TYPHIMURIUM, Strain/Indicator: TA1537, Metabolic Activation: RAT, LIVER, S-9, AROCLOR 1254, Method: STANDARD PLATE inactive; negative | Test System: AMES SALMONELLA TYPHIMURIUM, Strain/Indicator: TA1538, Metabolic Activation: NONE, Method: STANDARD PLATE inactive; negative | Test System: AMES SALMONELLA TYPHIMURIUM, Strain/Indicator: TA1538, Metabolic Activation: RAT, LIVER, S-9, AROCLOR 1254, Method: STANDARD PLATE inactive; negative | Test System: E. COLI, Strain/Indicator: WP2, Metabolic Activation: NONE, Method: STANDARD PLATE inactive; negative | Test System: E. COLI, Strain/Indicator: WP2, Metabolic Activation: RAT, LIVER, S-9, AROCLOR 1254, Method: STANDARD PLATE inactive; negative
